For test [1], the target named is T1, GABA-A receptor; alpha-1/beta-3/gamma-2 (Homo sapiens, UniProt P14867+P18507+P28472).
T1 sequence (P14867 whole entry): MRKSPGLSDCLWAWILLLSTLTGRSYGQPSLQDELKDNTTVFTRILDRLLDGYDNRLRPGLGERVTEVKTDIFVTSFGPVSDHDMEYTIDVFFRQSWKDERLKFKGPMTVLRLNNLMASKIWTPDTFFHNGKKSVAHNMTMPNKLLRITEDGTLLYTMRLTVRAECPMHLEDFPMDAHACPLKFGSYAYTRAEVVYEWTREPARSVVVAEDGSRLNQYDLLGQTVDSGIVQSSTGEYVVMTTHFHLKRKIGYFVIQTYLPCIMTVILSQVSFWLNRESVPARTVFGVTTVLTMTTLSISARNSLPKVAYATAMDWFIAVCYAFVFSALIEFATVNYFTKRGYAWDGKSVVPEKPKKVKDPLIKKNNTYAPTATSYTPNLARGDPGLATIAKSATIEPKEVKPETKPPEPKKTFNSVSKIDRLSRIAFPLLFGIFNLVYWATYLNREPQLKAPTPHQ
T1 sequence (P18507 whole entry): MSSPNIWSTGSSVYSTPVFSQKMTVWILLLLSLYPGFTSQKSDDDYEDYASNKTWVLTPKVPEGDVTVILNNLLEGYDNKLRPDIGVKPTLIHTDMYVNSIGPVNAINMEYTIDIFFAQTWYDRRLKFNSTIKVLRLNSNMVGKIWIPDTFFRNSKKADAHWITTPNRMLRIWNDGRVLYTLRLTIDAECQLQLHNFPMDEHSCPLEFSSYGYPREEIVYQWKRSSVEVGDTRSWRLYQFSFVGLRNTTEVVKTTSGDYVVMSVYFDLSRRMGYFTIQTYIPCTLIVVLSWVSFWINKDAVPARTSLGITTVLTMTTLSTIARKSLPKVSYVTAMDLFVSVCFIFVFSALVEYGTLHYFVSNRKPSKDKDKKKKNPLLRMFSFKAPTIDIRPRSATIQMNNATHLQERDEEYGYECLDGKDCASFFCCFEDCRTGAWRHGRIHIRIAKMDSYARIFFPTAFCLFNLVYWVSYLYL
T1 sequence (P28472 whole entry): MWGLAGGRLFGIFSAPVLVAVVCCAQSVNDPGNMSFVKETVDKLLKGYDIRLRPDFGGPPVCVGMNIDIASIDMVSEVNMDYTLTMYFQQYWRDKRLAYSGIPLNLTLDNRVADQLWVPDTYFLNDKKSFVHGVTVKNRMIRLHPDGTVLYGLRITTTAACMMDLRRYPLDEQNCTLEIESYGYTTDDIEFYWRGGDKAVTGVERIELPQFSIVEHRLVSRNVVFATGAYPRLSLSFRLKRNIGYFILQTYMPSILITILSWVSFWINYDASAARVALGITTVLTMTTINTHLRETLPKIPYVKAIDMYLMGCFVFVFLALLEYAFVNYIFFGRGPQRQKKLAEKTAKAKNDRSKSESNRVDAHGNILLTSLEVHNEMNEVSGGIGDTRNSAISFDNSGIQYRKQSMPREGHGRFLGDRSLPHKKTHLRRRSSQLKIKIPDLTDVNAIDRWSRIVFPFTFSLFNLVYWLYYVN
Put plainly: Binding affinity for human GABA-A receptor alpha-1-beta-3-gamma-2 subunits in L(tk-) cells.

Test [2] addresses GABA-A receptor; alpha-1/beta-3/gamma-2 (Homo sapiens) (UniProt P14867+P18507+P28472). Put plainly: Maximum percent change compared to GABA EC20 against GABA-A alpha-1-beta-3-gamma-2 receptor. It is filed as functional.
Test [3] concerns the target T2, GABA-A receptor; alpha-2/beta-3/gamma-2 (Homo sapiens, UniProt P18507+P28472+P47869).
T2 sequence (P18507 whole entry): T1 sequence (P18507 whole entry)
T2 sequence (P28472 whole entry): T1 sequence (P28472 whole entry)
T2 sequence (P47869 whole entry): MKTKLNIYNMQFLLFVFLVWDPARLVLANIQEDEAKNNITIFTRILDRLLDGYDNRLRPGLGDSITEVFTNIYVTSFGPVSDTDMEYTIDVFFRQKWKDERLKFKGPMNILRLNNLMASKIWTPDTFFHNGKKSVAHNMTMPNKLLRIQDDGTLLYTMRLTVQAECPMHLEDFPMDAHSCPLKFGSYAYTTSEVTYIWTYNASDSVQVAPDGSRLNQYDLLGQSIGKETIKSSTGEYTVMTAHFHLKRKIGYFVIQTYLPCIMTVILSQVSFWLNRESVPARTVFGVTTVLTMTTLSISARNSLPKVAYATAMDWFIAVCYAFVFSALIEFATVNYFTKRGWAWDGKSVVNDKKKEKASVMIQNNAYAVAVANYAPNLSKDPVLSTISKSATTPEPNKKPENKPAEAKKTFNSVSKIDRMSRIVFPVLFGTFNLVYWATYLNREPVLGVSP
Put plainly: Binding affinity for human GABA-A receptor alpha-2-beta-3-gamma-2 subunits in L(tk-) cells. In kind it is cell-based.

For test [4], the target named is T3, GABA-A receptor; alpha-3/beta-3/gamma-2 (Homo sapiens, UniProt P18507+P28472+P34903).
T3 sequence (P18507 whole entry): T1 sequence (P18507 whole entry)
T3 sequence (P28472 whole entry): T1 sequence (P28472 whole entry)
T3 sequence (P34903 whole entry): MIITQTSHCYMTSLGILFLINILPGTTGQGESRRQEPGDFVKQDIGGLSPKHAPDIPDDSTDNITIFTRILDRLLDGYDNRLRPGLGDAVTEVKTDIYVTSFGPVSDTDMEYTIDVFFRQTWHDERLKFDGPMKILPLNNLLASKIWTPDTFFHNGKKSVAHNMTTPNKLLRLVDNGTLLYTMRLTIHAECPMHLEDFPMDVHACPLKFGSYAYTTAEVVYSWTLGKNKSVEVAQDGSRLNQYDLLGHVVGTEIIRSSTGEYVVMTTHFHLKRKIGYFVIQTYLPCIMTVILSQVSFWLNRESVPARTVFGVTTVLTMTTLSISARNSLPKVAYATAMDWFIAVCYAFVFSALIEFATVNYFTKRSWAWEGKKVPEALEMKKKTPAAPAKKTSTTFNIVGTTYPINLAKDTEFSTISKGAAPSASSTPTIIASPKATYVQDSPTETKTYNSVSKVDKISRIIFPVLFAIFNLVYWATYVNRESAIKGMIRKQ
Put plainly: Binding affinity for human GABA-A receptor alpha-3-beta-3-gamma-2 subunits in L(tk-) cells. In kind it is cell-based.

The target in test [5] is T4, GABA-A receptor; alpha-5/beta-3/gamma-2 (Homo sapiens, UniProt P18507+P28472+P31644).
T4 sequence (P18507 whole entry): T1 sequence (P18507 whole entry)
T4 sequence (P28472 whole entry): T1 sequence (P28472 whole entry)
T4 sequence (P31644 whole entry): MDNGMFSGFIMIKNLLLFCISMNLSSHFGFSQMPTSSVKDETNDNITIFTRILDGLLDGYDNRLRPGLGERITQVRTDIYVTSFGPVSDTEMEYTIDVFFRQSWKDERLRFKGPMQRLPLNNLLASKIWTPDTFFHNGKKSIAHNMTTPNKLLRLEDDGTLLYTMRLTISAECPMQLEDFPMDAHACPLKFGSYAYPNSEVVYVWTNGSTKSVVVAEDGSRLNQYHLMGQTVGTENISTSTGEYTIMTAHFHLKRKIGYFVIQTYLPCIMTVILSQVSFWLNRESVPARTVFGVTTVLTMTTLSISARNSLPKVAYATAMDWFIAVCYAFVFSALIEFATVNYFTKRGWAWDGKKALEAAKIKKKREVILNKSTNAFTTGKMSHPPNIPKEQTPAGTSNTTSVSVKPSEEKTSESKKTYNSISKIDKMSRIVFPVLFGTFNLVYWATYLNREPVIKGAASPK
Kind of test: Binding affinity for human GABA-A receptor alpha-5-beta-3-gamma-2 subunits in L(tk-) cells. In kind it is cell-based.

The target in test [6] is GABA-A receptor; alpha-3/beta-3/gamma-2 (Homo sapiens) (UniProt P18507+P28472+P34903). Put plainly: Maximum percent change compared to GABA EC20 against GABA-A alpha-3-beta-3-gamma-2 receptor. It is filed as functional.

One may read the Ki as a dissociation constant, usually derived from enzyme kinetics or from competition with a known ligand. The low end stands for tighter binding, the high end for weaker binding. Turning to `Cc1ccc2c(c1)c(OCc1ccccn1)nn1c(-c3ccccc3)nnc21`, the inhibition constant Ki in test [1] is 0.0022 µM; in test [3], 0.0022 µM; in test [4] it was 0.0012 µM; in test [5] it was 0.00064 µM. For the same compound, the Efficacy in test [2] turned out to be 65%; in test [6], 27%.

Consider `Cc1cccc2c1c(OCc1ccccn1)nn1c(-c3ccccc3)nnc21`, for which the inhibition constant Ki in test [1] turned out to be 0.056 µM; in test [3], 0.044 µM; in test [4] it was 0.035 µM; in test [5], 0.02 µM. The Efficacy in test [2] is 43%; in test [6], 39%.

For `c1ccc(-c2nnc3c4ccccc4c(OCc4cccnc4)nn23)cc1`, the Ki is 0.019 µM in test [1], 0.016 µM in test [3], 0.019 µM in test [4] and 0.031 µM in test [5].

For `c1ccc(-c2nnc3c4ccccc4c(OCc4ccncc4)nn23)cc1`, the Ki in test [1] turned out to be 0.024 µM; in test [3], 0.011 µM; in test [4], 0.0077 µM; in test [5], 0.0061 µM.

`Cc1cccnc1COc1nn2c(-c3ccccc3)nnc2c2ccccc12`: the inhibitory constant (Ki) was 0.0024 µM in test [1], 0.0023 µM in test [3], 0.001 µM in test [4] and 0.00088 µM in test [5].

On to `Cc1cccc2c(OCc3ccccn3)nn3c(-c4ccccc4)nnc3c12`, for which the inhibition constant Ki was found to be 0.0012 µM in test [1], 0.0018 µM in test [3], 0.00037 µM in test [4] and 0.00084 µM in test [5]. For the same compound, the figures for the Efficacy in test [2] and in test [6] were 0% and 19%, respectively.

For `c1ccc(-c2nnc3c4ccccc4c(OCC4CCCCC4)nn23)cc1`, the Ki in test [1], in test [3], in test [4] and in test [5] was above 1 µM in each case.

As to `c1ccc(-c2nnc3c4ccccc4c(OCCc4ccccn4)nn23)cc1`, the inhibition constant (Ki) in test [1] was found to be 0.018 µM; in test [3], 0.025 µM; in test [4], 0.017 µM; in test [5] it was 0.015 µM.

`Cn1ccnc1COc1nn2c(-c3ccccc3)nnc2c2ccccc12`: the Ki in test [1] turned out to be 0.00051 µM; in test [3], 0.0007 µM; in test [4] it was 0.00022 µM; in test [5], 0.00017 µM.

`Cc1ccc2c(OCc3ccccn3)nn3c(-c4ccccc4)nnc3c2c1`: the inhibition constant (Ki) in test [1], in test [3], in test [4] and in test [5] was above 1 µM in each case.

`c1ccc(-c2nnc3c4ccccc4c(OCc4cnccn4)nn23)cc1`: the Ki in test [1] was 0.002 µM; in test [3] it was 0.0016 µM; in test [4], 0.00071 µM; in test [5], 0.00036 µM.

As for `COc1cccc(COc2nn3c(-c4ccccc4)nnc3c3ccccc23)c1`, the inhibition constant Ki came to 0.8 µM in test [1], 0.17 µM in test [3], 0.066 µM in test [4] and 0.15 µM in test [5].

`Clc1ccc(COc2nn3c(-c4ccccc4)nnc3c3ccccc23)cc1`: the Ki in test [1] worked out at 0.48 µM; in test [3], 0.38 µM; in test [4] it was 0.25 µM; in test [5] it was 0.17 µM.

As to `Fc1ccc(-c2nnc3c4ccccc4c(OCc4ccccn4)nn23)cc1`, the Ki was 0.0039 µM in test [1], 0.0037 µM in test [3], 0.0024 µM in test [4] and 0.0017 µM in test [5].

In the case of `N#Cc1cccc(COc2nn3c(-c4ccccc4)nnc3c3ccccc23)c1`, the Ki in test [1] was determined as 0.73 µM; in test [3], 0.4 µM; in test [4] it was 0.17 µM; in test [5], 0.13 µM.

Consider `c1ccc(COc2nn3c(C4CCC4)nnc3c3ccccc23)nc1`, for which the inhibition constant (Ki) in test [1] worked out at 0.056 µM; in test [3], 0.024 µM; in test [4] it was 0.023 µM; in test [5] it was 0.0051 µM.

On to `CC(C)(C)c1nnc2c3ccccc3c(OCc3ccccn3)nn12`, for which the Ki in test [1], in test [3], in test [4] and in test [5] was above 1 µM in each case.

Consider `c1ccc(COc2nn3c(-c4ccccc4)nnc3c3ccccc23)cc1`, for which the Ki is 0.28 µM in test [1], 0.016 µM in test [3], 0.041 µM in test [4] and 0.038 µM in test [5].

With `c1ccc(-c2nnc3c4ccccc4c(OCc4ccco4)nn23)cc1`, the inhibition constant Ki is 0.25 µM in test [1], 0.27 µM in test [3], 0.18 µM in test [4] and 0.074 µM in test [5].

As to `COc1ccc(-c2nnc3c4ccccc4c(=O)n(Cc4ccccc4)n23)cc1`, the inhibition constant Ki in test [1], in test [3], in test [4] and in test [5] was above 1 µM each time.

Take `C=Cc1nnc2c3ccccc3c(OCc3ccccn3)nn12`: the Ki was 0.049 µM in test [1], 0.028 µM in test [3], 0.011 µM in test [4] and 0.0032 µM in test [5]. In addition, the Efficacy in test [6] was -31%.

For `c1ccc(-c2nnc3c4ccccc4c(OCc4ccsc4)nn23)cc1`, the inhibition constant Ki in test [1] is 0.71 µM; in test [3] it was 0.51 µM; in test [4] it was 0.24 µM; in test [5], 0.25 µM.

With `c1ccc(Cc2nnc3c4ccccc4c(OCc4ccccn4)nn23)cc1`, the inhibition constant Ki in test [1] stood at 0.26 µM; in test [3], 0.34 µM; in test [4] it was 0.19 µM; in test [5], 0.018 µM.
